Measured values reported in publication PMC3527451, “A Pilot Randomized, Placebo Controlled, Double Blind Phase I Trial of the Novel SIRT1 Activator SRT2104 in Elderly Volunteers” (PLoS ONE, 2012).
“Also recorded” adds a separate entry of the source. Like-named read-outs stand apart in the source and are kept apart here.

What was measured:
[1] = system: elderly male and female volunteers; assay: Serum lipid profile at baseline and after 28 days treatment; assay type: in vivo, human
Method: At every visit (including at screening and follow-up), blood and urine samples were collected for clinical laboratory assessments (general blood biochemistry, full blood count, coagulation parameters and urinalysis). On the same days, physical examination, vital signs (resting pulse rate, respiration rate, temperature, and blood pressure readings), pre- and post-dose 12-lead ECG and a review of adverse events (AE) and any medications received were also performed. Safety evaluations were based on the incidence, severity and type of AEs and clinically significant changes from baseline in physical examination findings, vital signs or clinical laboratory results.

[2] = system: elderly male and female volunteers; assay: Maximal aerobic capacity test (incremental cycle ergometer); assay type: in vivo, human
Method: A stepwise incremental exercise test was performed on a cycle ergometer (Monarch 874E, Monark Exercise AB, Vansbro, Sweden). All participants were familiarized to the test procedure on a separate occasion prior to testing. Participants were seated in a standardized position. The test started with unloaded cycling, subjects were asked to maintain a cadence of 50 revolutions per minute (rpm), if the subject could not achieve 50 rpm they were encouraged to cycle as fast as the could (but not less than 40 rpm). Every two minutes the external load on the cycle ergometer was increased by 0.5 kg, this equated to a 25-Watt increase in workload at 50 rpm. Cardiac monitoring of heart rate, respiratory rate/minute ventilation and pulse oximeter for oxygen saturation were continuously recorded during the test.
Analysis of Maximal Aerobic Capacity parameters was performed using an ANOVA model with treatment group as a factor. Workload was progressed in 2-minute staged increments from an initial 3 minutes unloaded cycling, to exhaust subjects over a 6- to 10-min period. The test was terminated when the participant reached volitional exhaustion or their cadence dropped by 10 rpm. At the end of each increment, work-rate watts, rating of perceived exertion (Borg RPE scale), heart rate (Polar Vantage chest heart rate monitor, Polar Electro, Finland) and 3-lead ECG were recorded.

[3] = system: CYP1A; conditions: human liver microsomes; cited from earlier work
[4] = system: CYP1A; design: method as in ref 17, 18 (a number printed in a supplementary file, which may have a reference list of its own: not looked up in the article's list); conditions: cultured hepatocytes, at the concentrations tested; cited from earlier work
[5] = cited from earlier work
[6] = system: healthy male volunteers; conditions: young healthy volunteers, up to 7 days dosing of 0.03–3.0 g/day; cited from earlier work
[7] = system: 39 common receptors; design: method as in SRT2104 Investigator's Brochure; conditions: in vitro; ref SRT2104 Investigator's Brochure; cited from earlier work
[8] = system: DIO mice and ob/ob mice; conditions: cited from earlier work
[9] = system: SIRT2; conditions: SIRT1 activation over SIRT2; ref SRT2104 Investigator's Brochure; cited from earlier work
[10] = once daily oral administration, ref SRT2104 Investigator's Brochure

Cc1nc(-c2cccnc2)sc1C(=O)Nc1ccccc1-c1cn2c(CN3CCOCC3)csc2n1 [SRT2104]
serum cholesterol levels, change relative to baseline as compared to placebo ([1]; 0.5 g/day, day 28, p = 0.0071): statistically significant decrease | increase in mean HDL:LDL ratio as compared to placebo ([1]; 2.0 g/day, day 28, p = 0.0141): statistically significant | serum cholesterol levels, change relative to baseline as compared to placebo ([1]; 2.0 g/day, day 28, p = 0.0181): statistically significant decrease | total cholesterol, LDL levels and HDL:LDL ratio after drug washout ([1]; 7 days of drug washout): reverted to baseline values | high-density lipoprotein, HDL ([1]; day 28): not changes | low-density lipoprotein (LDL) cholesterol ([1]; day 28): decreases | mean HDL:LDL ratios ([1]; day 28, 0.5 and 2.0 g/day): dose-dependent increase | mean serum triglyceride concentration ([1]; day 28 relative to baseline, as compared to placebo, not dose-dependent, only a trend for 2.0 g/day): decrease | Serum cholesterol, LDL levels and triglycerides ([1]; with treatment, 0.5 or 2.0 g for 28 days): decreased | RPE, range of change from baseline ([2]; 0.5g/day, day 27): -3-6 | TTC, range of change from baseline ([2]; 0.5g/day, day 27): -106 to 67 s | TTC, mean change from baseline (SD) ([2]; 0.5g/day, day 27, p 0.004): -31 (50) sec | RPE, mean change from baseline (SD) ([2]; 0.5g/day, day 27, p 0.962): 0 (3) | decrease in exercise capacity (time to cessation for the staged bicycle assessment) ([2]; 0.5 g/day, day 27, p = 0.004): 4% | RPE, range of change from baseline ([2]; 2.0g/day, day 27): -3-1 | TTC, range of change from baseline ([2]; 2.0g/day, day 27): -29 to 45 s | change in exercise capacity ([2]; 2.0g/day, day 27): no evidence for any changes | TTC, mean change from baseline (SD) ([2]; 2.0g/day, day 27, p 0.292): 9 (27) sec | RPE, mean change from baseline (SD) ([2]; 2.0g/day, day 27, p 0.638): -1 (2) | inhibition of CYP1A [3]: not an inhibitor; also recorded: does not inhibit | induction of CYP1A [4]: not a significant inducer | dose proportionality of AUC(0-t) and Cmax ([5]; dose range 0.03 to 1.0 g/day): approximate dose proportionality | dose proportionality of AUC(0-t) and Cmax ([5]; doses greater than 1.0 g/day up to 3.0 g/day): less than dose proportional increase between 1.0–3.0 g/day | effect of dose on elimination half-life (t1/2) ([5]; doses up to 3.0 g/day): not affected by dose; also recorded: similar | terminal elimination half-life (t½) ([5]; healthy male volunteers, 0.03 – 3.0 g/day, liquid suspension, ref SRT-2104-001 (19)): 8 to 24 h | tolerability [6]: well tolerated and safe | inhibitory activity against 39 common receptors [7]: no significant inhibitory activity | cholesterol, LDL and triglycerides in preclinical models of dyslipidemia, diabetes and obesity ([8]; e.g. DIO and Lep ob/ob obese mice): lower cholesterol, LDL and triglycerides | glucose and insulin levels ([8]; once daily oral 0.1 g/kg for 7 days or more, ref SRT2104 Investigator's Brochure): reduces glucose and insulin levels | body weight [8, 10]: No effect on body weight | fasting blood glucose and fed insulin [8, 10]: lowered | response to a glucose tolerance test [8, 10]: enhanced the response to a glucose tolerance test | adverse reactions in mouse models of diabetes ([8]; up to 0.3 g/kg orally once daily for 28 days, ref SRT2104 Investigator's Brochure): No adverse reactions | fold selectivity as compared to SIRT2 [9]: > 100
